Molecules are shown by their SMILES. “And” between values parts separate entries of the source, which are not always exact repeats. Equal values may be shown once.

The subject of assay [1] is histamine-induced itch. Kind of assay: Histamine-induced itch, topically applied Aqueous Cream BP, histamine iontophoresis, VAS. Particulars: for Itch score (area under the curve): volar forearm skin, after 4 hours, VAS area under curve 0 to 5 minutes; for Itch score % of control: control = vehicle alone.
Assay [2] relates to histamine-induced itch. Kind of assay: Histamine-induced itch, test material topically applied in ethanol:Vaseline Intensive Care Lotion 1:1. It is filed as in vivo, human. Particulars: for Itch score % of control: 50 mM in ethanol mixed 1:1 with VICL, control = ethanol:VICL vehicle alone of the same run; for Effect on histamine-induced itch (in words): topically applied in the presence of a lotion.

The test system of assay [3] is histamine-induced itch. Briefly: Histamine-induced itch, test material applied under water-impermeable patch for 24 hours before histamine challenge. Conditions: applied by patch.
The mark [4] stands for this setting: HU-210 0.05% (w/v) in Aqueous Cream BP.
Where [5] appears, read: HU-210 0.5% (w/v) in Aqueous Cream BP.

On to `CCCCCCC(C)(C)c1cc(O)c2c(c1)OC(C)(C)[C@@H]1CC=C(CO)C[C@@H]21` [HU-210, (6aR)-trans-3-(1,1-Dimethylheptyl)-6a,7,10,10a-tetrahydro-1-hydroxy-6,6-dimethyl-6H-dibenzo[b,d]pyran-9-methanol], for which, in assay [1] (setting [4]), the “Itch score (area under the curve)” value was 101 and the “Itch score % of control” value is recorded as 7.3%. Also, in assay [1] (setting [5]), the “Itch score (area under the curve)” value came out at 119 and the “Itch score % of control” value stood at 6.2%. The “Effect on histamine-induced itch (in words)” value (“Effect” for short) in assay [1] (topically applied in cream) is given as “capable of reducing histamine-induced itch”.

`CCCCCCCCCCCCCCCCCC(=O)NCCO` [SEA]: in assay [2], the “Itch score % of control” value is 231% and 260% and 190%; the “Effect” value is on record as “unable to demonstrate any anti-pruritic action or even appeared to exacerbate the itch response”.

Turning to `CCCCCCCCCCCCCCCC(=O)NCCO` [PEA, Palmitoylethanolamide], the “Effect” value in assay [2] and in assay [3] was “can inhibit histamine-induced itch” in each case.

As for `CCCCC/C=C\C/C=C\CCCCCCCC(=O)NCCO` [LAMEA, linoleoylethanolamine], in assay [2], the “Itch score % of control” value is 169% and 108% and 100%; the “Effect” value is on record as “unable to demonstrate any anti-pruritic action or even appeared to exacerbate the itch response”.
